This is an account of results in patent US5475029A, “Farnesyl compounds as cholesterol lowering agents” (The Board of Trustees of the Leland Stanford Junior …, priority 1993, dated 1995).

Common to all, as to type: cell-based
For assay [1], the system named is total cellular protein. As to the kind of experiment: Total cellular protein synthesis (TCA-precipitable counts). Conditions: 10 μg/ml. As to the method:
(§1) Measurement of HMGal and HMG-CoA Reductase Synthesis Rates Cells plated into 60×15 mm dishes were grown in 5% LPS MEM with 0.25 mg/ml active geneticin for 24 hours. These cells were washed with PBS and grown for 24 hours in 5% LPS MEM supplemented with 0.25 mg/ml active geneticin, 10 μM compactin and 0.1 mM mevalonate. After 24 hours, the medium was removed, the cells were washed with PBS and the medium was replaced with methionine-free MEM supplemented with 5% LPS, 250 μg/ml of active geneticin, 10 μM compactin, and 0.1 mM mevalonate. In addition, 20 mM mevalonate or 10 μg/ml farnesyl acetate was included in those plates previously treated with these compounds. […] Cells were washed, lysed and the HMGal and HMG-CoA reductase proteins were immunoprecipitated, subjected to SDS-PAGE and quantified. […]
(§2) Farnesyl compounds reduce translation and stimulate degradation of HMG-CoA reductase and HMGal A reduction in HMGal specific activity triggered by the farnesyl compounds could have been the result of a decrease in HMGal synthesis, an increase in HMGal degradation, or a combination of changes in both the synthesis and degradation rates. In order to test whether the farnesyl compounds impact synthesis, the rates of HMGal, HMG-CoA reductase, and total cellular protein synthesis were measured by [^35 S]methionine incorporation in the presence and absence of 10 μg/ml farnesyl acetate.

Assay [2] concerns HMG-CoA reductase. The assay can be described thus: HMG-CoA reductase synthesis rate ([35S]methionine incorporation). As to conditions: 10 μg/ml. As to the method:
as §1, §2

Assay [3] deals with HMG-CoA reductase. The assay can be described thus: HMG-CoA reductase degradation rate (pulse-chase). Conditions: 10 μg/ml during chase; untreated 9.3 hours. As to the method: (§3) Measurement of HMGal and HMG-CoA Reductase Degradation Rates Cells grown in 60×15 mm dishes were washed once with ice-cold PBS and starved for 1 hour in 1 ml of methionine-free MEM supplemented with 5% LPS, 250 μg/ml of active geneticin, 10 μM compactin, and 0.1 mM mevalonate. These cells were radio-labeled for 2 hours in 300 μl of the methionine-free starvation medium containing 100 μCi of Tran^35 S-label (>1,000 Ci/mmol). Cells were incubated in an MEM-based chase medium containing 2 mM methionine, 5% LPS, 250 μg/ml of active geneticin, 10 μM compactin, and 0.1 mM mevalonate. During the chase period, some plates also had either 20 mM mevalonate, 10 μg/ml farnesyl acetate or 10 μg/ml ethyl farnesyl ether added to them as indicated in the figure legend. Following the chase, cells were washed, lysed and the HMGal and HMG-CoA reductase proteins were immunoprecipitated, subjected to SDS-PAGE and quantified.
(§4) In order to test whether the farnesyl compounds impact degradation, the rates of degradation for HMGal, HMG-CoA reductase, and total cellular protein were measured in the presence and absence of 10 μg/ml farnesyl acetate and ethyl farnesyl ether.

Assay [4] deals with HMGal. The assay can be described thus: HMGal degradation rate (pulse-chase). As to conditions: 10 μg/ml during chase; untreated 6.4 hours. As to the method: as §3, §4
The test system of the next assay is cholesterol biosynthesis. The assay can be described thus: [3H]acetate incorporation into cholesterol in CHO-HMGal cells. As to the method:
Thin Layer Chromatography--TLC was performed using Analtech 250 μm silica gel G plates with a hexanes/diethyl ether (1:1) solvent system. Lipid standards were visualized by iodine staining. Bands were scraped from the plate and their radioactivity was measured.
Quantification of Radioactivity--Samples were suspended in 4 ml of scintillation fluid (Cytoscint from ICN). The radioactivity of the samples was measured using a Beckman LS-7500 scintillation counter.
Subsequently, the cells were labeled for 1,2, and 4 hours with [^3 H]acetate and harvested. The non-saponifiable lipid fraction from each cell type was extracted and separated by TLC. The radioactivity that co-migrated with cholesterol was measured and normalized for the amount of cellular protein.
Farnesyl acetate and ethyl farnesyl ether were only present during the labeling period so that any reduction in incorporation into cholesterol would be the result of inhibition and not a down regulation in HMG-CoA reductase.

Assay [5] relates to HMGal. The assay can be described thus: HMGal activity (in vitro β-galactosidase specific activity) in CHO-HMGal cells. As to the method:
Cell Culture--All cells were grown as monolayers at 37° C. in an atmosphere of 5% CO2. CHO-HMGal cells were grown in minimal essential medium (MEM) supplemented with 0.25 mg/ml active geneticin and either 5% fetal calf serum (FCS) or 5% lipid-poor fetal calf serum (LPS).
Stock Solutions--Stock solutions of farnesyl acetate, ethyl farnesyl ether, and the mixture of 25-hydroxycholesterol with cholesterol were all made in 100% ethanol at 100 times the final concentration. In all experiments in which these compounds were used, there is a final concentration of 1% ethanol in the medium. For control, cells grown with "no additives" or "mevalonate" 100% ethanol was added to the medium to bring the final concentration of ethanol to 1%. The mevalonate stock solution was prepared at a concentration of 2M in 20 mM potassium phosphate buffer (pH 4.5).
β-galactosidase Specific Activity--In vitro β-galactosidase activity was measured using the substrate, o-nitrophenyl-β-D-galactopyranoside. Specific activities were calculated using protein concentration values.
Farnesyl acetate and ethyl farnesyl ether stimulate a reduction in HMGal activity--In an attempt to identify tile non-sterol metabolite(s) that triggers the down regulation of HMG-CoA reductase, five commercially available isoprenoid compounds were tested for their effects on HMGal activity in CHO-HMGal cells. Each of tile compounds tested closely resembled one of tile naturally occurring isoprenoid pyrophosphates, except that the pyrophosphate group had been replaced by either a hydroxyl or an […] group. The compounds tested included: 3-methyl-2-buten-1-ol, the alcohol of the five carbon isoprenoid-dimethylallyl pyrophosphate (a naturally occurring isomer of isopentenyl pyrophosphate); geraniol and geranyl acetate, the alcohol and the […] of the ten carbon isoprenoid-geranyl pyrophosphate; and farnesol and farnesyl acetate, the alcohol and the […] of the fifteen carbon isoprenoid-farnesyl pyrophosphate.
To confirm that the reduction in HMGal activity was the result of a regulatory function specifically targeting the membrane domain of HMGal, the effects of farnesyl acetate on β-galactosidase activity were measured in vitro for both CHO-HMGal cells and CHO-Gal cells. The CHO-Gal cells had been stably transfected with a construct identical to the HMGal construct (using the same vector, promoter, and 5' and 3' flanking regions) except that the construct in the CHO-Gal cells codes for a soluble β-galactosidase protein instead of the HMGal fusion protein with the membrane domain of HMG-CoA reductase. In this experiment, the CHO-Gal cells served to control for any artifacts farnesyl acetate might cause in the β-galactosidase assay or any nonspecific effects farnesyl acetate might have on the rates of protein synthesis or degradation.

Assay [6] relates to total cellular protein. As to the kind of experiment: Total cellular protein degradation. Conditions: 10 μg/ml. As to the method: as §3, §4

As to `CC(=O)OCC=C(C)CCC=C(C)CCC=C(C)C` [farnesyl acetate], the “effect on total protein synthesis (TCA-precipitable counts)” value with total cellular protein [1] was “Neither farnesyl acetate nor mevalonate have a significant effect”. For the same compound, the “reduction in the rate of HMG-CoA reductase synthesis” value with HMG-CoA reductase [2] is listed as 60%. The “half-life of HMG-CoA reductase” value with HMG-CoA reductase [3] was determined as 3.6 h. Further, in the assay on HMG-CoA reductase [3], the “reduction of the half-life of HMG-CoA reductase” value is listed as 60%. Moreover, the “half-life of HMGal” value in the assay with HMGal [4] is 3.9 h. Besides, in the assay on HMGal [4], the “reduction of the half-life of HMGal” value is 40%. Further, the “reduction in [3H]acetate incorporation into cholesterol” value with cholesterol biosynthesis (24 hours pretreatment, then labeled 1, 2 and 4 hours, CHO-HMGal cells) turned out to be 80%; with cholesterol biosynthesis (compound present only during the labeling period, no pretreatment) it was 89%. The “reduction of HMGal activity” value in the assay on HMGal [5] (10 μg/ml, 24 hour treatment) is listed as 70%; in the assay with HMGal [5] (20 μg/ml) it was 80%. The “reduction in HMGal activity at concentrations below the levels toxic to the cells” value with HMGal [5] (five isoprenoid compounds tested) is “stimulated a reduction in HMGal activity”. Further, the “effect on the degradation of total cellular protein” value in the assay with total cellular protein [6] is listed as “Neither farnesyl compound had a significant effect”.
